This is an account of results in PMC5792193 (Proteins, 2009).

Positions of bridges follow the written chain, without caps; N, C: chain ends. Residues, ends and D or L forms follow the SMILES beside them.

One data set concerns U87MG tumor xenograft. Conditions: peptide conjugated to a small molecule fluorochrome or radiolabel; compared to weaker binding peptide conjugates including FN-RGD2 and c(RGDyK); cited from earlier work.
Data set [1] has as its target integrin αvβ3 (Homo sapiens) (UniProt P06756). The conditions noted are these: cited from earlier work.
The conditions of data set [2]: mouse, serum.
The conditions of data set [3]: human serum, 37 °C, 24 h, reversed-phase HPLC.
In a further data set the target is αvβ3 integrin (Homo sapiens, UniProt P05106+P06756). The conditions noted are these: cited from earlier work.
Sequence of αvβ3 integrin (P06756 31-889 limits assumed): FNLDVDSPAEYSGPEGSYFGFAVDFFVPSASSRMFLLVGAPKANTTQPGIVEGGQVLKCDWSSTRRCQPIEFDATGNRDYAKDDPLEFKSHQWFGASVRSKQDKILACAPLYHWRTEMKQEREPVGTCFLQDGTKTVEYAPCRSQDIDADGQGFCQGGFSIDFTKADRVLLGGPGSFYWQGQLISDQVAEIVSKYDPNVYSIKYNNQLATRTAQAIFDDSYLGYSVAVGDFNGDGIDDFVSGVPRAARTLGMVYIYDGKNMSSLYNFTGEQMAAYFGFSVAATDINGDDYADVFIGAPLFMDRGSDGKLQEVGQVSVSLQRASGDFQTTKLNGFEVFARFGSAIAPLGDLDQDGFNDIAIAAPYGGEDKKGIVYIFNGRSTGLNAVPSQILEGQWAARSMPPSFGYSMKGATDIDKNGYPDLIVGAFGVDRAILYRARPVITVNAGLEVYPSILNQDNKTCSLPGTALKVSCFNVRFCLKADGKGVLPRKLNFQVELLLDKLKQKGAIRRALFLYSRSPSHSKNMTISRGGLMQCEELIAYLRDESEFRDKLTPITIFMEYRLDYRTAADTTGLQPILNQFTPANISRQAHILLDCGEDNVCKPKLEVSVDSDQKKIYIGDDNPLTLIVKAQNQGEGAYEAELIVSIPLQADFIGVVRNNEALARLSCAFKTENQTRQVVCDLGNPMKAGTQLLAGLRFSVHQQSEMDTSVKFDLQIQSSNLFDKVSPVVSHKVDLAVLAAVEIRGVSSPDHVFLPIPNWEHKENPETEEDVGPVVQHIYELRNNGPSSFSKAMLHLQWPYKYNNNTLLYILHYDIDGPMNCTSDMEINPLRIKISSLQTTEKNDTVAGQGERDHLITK
Sequence of αvβ3 integrin (P06756 891-1048 partner limits assumed): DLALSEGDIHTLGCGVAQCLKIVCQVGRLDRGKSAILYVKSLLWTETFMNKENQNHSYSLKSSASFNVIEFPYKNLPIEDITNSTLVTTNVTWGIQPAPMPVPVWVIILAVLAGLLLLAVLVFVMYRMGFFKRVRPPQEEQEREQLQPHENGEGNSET
Sequence of αvβ3 integrin (P05106 27-788): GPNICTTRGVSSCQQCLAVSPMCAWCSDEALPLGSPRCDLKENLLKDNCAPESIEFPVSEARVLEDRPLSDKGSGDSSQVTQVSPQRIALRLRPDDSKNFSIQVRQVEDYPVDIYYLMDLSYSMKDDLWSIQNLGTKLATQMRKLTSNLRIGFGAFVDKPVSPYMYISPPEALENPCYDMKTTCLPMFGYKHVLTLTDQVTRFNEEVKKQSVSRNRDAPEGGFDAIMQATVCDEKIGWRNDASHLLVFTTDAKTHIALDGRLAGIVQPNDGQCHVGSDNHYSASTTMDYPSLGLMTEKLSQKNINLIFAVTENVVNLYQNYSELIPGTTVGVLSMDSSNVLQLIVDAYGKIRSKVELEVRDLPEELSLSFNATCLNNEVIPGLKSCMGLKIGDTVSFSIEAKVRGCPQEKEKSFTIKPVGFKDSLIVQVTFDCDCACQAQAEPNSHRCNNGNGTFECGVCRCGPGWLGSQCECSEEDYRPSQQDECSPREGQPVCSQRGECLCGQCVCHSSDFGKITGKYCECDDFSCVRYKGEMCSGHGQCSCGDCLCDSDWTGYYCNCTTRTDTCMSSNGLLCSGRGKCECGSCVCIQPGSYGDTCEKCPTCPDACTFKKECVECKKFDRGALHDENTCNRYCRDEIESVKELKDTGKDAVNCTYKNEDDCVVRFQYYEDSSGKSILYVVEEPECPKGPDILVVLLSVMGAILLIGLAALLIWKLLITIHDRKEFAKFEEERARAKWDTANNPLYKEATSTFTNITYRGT
Another data set deals with α5β1 integrin (Homo sapiens, UniProt P05556+P08648). Conditions: cited from earlier work.
Sequence of α5β1 integrin (P08648 42-894 limits assumed): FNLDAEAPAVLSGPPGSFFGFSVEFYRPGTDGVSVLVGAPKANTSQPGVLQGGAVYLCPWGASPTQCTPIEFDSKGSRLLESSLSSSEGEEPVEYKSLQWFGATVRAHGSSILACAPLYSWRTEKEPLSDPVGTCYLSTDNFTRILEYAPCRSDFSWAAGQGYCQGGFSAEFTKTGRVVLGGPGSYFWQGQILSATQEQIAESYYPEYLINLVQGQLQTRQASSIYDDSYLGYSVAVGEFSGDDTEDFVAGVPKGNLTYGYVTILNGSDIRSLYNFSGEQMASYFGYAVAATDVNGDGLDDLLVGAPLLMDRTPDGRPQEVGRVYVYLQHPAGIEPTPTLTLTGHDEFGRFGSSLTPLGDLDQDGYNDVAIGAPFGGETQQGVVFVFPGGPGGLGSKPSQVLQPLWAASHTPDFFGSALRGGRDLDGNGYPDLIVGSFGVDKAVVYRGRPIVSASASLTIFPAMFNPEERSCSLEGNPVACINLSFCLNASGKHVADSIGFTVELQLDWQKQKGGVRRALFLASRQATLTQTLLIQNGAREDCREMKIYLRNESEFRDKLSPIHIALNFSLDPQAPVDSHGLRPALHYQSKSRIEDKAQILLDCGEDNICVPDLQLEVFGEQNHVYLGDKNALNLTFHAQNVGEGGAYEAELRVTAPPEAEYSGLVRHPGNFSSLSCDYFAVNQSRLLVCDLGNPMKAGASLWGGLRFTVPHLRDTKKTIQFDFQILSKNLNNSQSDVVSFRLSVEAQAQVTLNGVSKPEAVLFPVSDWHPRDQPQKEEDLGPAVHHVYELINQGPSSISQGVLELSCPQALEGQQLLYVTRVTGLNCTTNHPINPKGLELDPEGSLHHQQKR
Sequence of α5β1 integrin (P08648 895-1049 partner limits assumed): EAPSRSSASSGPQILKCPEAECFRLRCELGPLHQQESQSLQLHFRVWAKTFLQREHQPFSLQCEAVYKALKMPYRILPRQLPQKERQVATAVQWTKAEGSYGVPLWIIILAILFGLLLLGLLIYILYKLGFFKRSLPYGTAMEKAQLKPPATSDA
Sequence of α5β1 integrin (P05556 21-798): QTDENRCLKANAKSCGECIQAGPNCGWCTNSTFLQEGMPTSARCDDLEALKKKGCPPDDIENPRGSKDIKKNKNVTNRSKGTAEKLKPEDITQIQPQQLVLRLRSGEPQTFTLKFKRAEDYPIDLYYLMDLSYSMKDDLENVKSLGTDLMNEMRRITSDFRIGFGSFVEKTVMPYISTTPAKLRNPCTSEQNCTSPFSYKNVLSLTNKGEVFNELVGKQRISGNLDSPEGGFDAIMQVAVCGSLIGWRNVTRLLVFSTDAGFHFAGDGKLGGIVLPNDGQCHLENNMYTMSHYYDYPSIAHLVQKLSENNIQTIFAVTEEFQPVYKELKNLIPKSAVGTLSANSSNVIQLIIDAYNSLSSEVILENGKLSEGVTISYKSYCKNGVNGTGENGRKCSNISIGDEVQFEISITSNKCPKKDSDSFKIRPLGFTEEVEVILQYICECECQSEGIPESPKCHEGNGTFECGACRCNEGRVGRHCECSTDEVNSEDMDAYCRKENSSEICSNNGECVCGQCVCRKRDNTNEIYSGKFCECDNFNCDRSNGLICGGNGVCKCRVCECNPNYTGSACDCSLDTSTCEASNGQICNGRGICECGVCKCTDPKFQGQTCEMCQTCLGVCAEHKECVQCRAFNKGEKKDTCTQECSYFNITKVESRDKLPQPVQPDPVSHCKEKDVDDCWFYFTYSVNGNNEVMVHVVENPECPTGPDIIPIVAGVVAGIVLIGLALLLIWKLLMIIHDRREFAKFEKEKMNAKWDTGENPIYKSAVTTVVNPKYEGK
Data set [4] concerns U87MG cell adhesion to fibronectin-coated plates. In words: Integrin-dependent cell adhesion assay. The class given is cell-based, human. The conditions noted are these: U87MG cells, 2 h.

Sequence of Echistatin (P17347 131-179): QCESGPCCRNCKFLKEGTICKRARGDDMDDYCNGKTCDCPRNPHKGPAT
Sequence of integrin αvβ3 (Homo sapiens) (P06756 31-1048, chain 1 of 2): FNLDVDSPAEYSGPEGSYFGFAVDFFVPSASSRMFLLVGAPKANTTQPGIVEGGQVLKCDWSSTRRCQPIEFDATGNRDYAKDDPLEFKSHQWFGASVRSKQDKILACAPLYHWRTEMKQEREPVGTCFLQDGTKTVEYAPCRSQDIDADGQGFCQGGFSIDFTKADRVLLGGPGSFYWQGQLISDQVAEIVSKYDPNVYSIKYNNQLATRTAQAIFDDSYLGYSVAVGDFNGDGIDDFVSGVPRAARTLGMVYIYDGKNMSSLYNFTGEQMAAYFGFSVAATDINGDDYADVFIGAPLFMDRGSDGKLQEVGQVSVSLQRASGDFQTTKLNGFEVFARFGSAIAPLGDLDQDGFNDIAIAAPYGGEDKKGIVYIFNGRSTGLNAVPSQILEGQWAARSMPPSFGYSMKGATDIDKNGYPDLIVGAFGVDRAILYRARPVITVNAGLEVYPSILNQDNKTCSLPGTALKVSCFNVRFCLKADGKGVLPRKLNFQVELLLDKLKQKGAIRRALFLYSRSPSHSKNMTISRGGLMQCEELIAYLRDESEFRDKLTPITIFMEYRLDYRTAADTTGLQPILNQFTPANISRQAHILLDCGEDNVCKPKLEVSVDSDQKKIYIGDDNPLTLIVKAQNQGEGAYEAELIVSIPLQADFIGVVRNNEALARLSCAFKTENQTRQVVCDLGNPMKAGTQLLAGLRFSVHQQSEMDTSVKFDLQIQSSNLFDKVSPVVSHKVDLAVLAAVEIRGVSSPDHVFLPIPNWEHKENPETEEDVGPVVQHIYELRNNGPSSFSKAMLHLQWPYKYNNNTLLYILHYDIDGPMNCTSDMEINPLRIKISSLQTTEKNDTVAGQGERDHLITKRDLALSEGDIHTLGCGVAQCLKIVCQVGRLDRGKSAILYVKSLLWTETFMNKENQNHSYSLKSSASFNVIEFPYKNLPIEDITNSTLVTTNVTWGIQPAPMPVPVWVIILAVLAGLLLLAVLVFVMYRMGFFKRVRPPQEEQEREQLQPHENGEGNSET
Sequence of integrin αvβ3 (Homo sapiens) (P05106 27-788, chain 2 of 2, further chain): as the sequence (P05106 27-788) above

As for `CC(C)C[C@@H]1NC(=O)[C@@H]2CSSC[C@@H](C(=O)NCC(=O)O)NC(=O)[C@H](Cc3ccccc3)NC(=O)CNC(=O)[C@H](CC(N)=O)NC(=O)[C@@H]3CCCN3C(=O)CNC(=O)[C@@H]3CSSC[C@H](NC(=O)[C@H]([C@@H](C)O)NC(=O)[C@H](CC(C)C)NC(=O)[C@@H]4CCCN4C(=O)[C@@H]4CCCN4C(=O)[C@H](CC(N)=O)NC(=O)[C@H](CC(=O)O)NC(=O)CNC(=O)[C@H](CCCNC(=N)N)NC(=O)[C@@H]4CCCN4C(=O)[C@H](CCCNC(=N)N)NC(=O)[C@@H]4CCCN4C(=O)[C@@H](NC(=O)CN)CSSC[C@H](NC(=O)CNC(=O)[C@H](C)NC1=O)C(=O)N[C@@H](C(C)C)C(=O)N3)C(=O)N[C@@H](CO)C(=O)N[C@@H](CCC(N)=O)C(=O)N[C@@H](CC(=O)O)C(=O)N[C@@H](CO)C(=O)N[C@@H](CC(=O)O)C(=O)N2` [2.5F] (H-GCPRPRGDNPPLTCSQDSDCLAGCVCGPNGFCG-OH; disulfide 2-24, 14-26, 20-32), the “tumor uptake (in words)” value in the data set on U87MG tumor xenograft is “significant increase in tumor uptake”. For Echistatin (from UniProt P17347), in data set [1], the Kd (usually a measure of binding affinity in units of concentration) was 0.36 nM.

Turning to `CC(C)C[C@@H]1NC(=O)[C@@H]2CSSC[C@@H](C(=O)NCC(=O)O)NC(=O)[C@H](Cc3ccccc3)NC(=O)CNC(=O)[C@H](CC(N)=O)NC(=O)[C@@H]3CCCN3C(=O)CNC(=O)[C@@H]3CSSC[C@H](NC(=O)[C@H](CO)NC(=O)[C@H]([C@@H](C)O)NC(=O)[C@@H]4CCCN4C(=O)[C@H](C)NC(=O)[C@H](Cc4c[nH]c5ccccc45)NC(=O)[C@H](CC(=O)O)NC(=O)CNC(=O)[C@H](CCCNC(=N)N)NC(=O)CNC(=O)[C@H](CCC(N)=O)NC(=O)[C@@H]4CCCN4C(=O)[C@@H](NC(=O)CN)CSSC[C@H](NC(=O)CNC(=O)[C@H](C)NC1=O)C(=O)N[C@@H](C(C)C)C(=O)N3)C(=O)N[C@@H](CO)C(=O)N[C@@H](CCC(N)=O)C(=O)N[C@@H](CC(=O)O)C(=O)N[C@@H](CO)C(=O)N[C@@H](CC(=O)O)C(=O)N2` [2.5D] (H-GCPQGRGDWAPTSCSQDSDCLAGCVCGPNGFCG-OH; disulfide 2-24, 14-26, 20-32), in the data set on U87MG tumor xenograft, the “tumor uptake (in words)” value is “significant increase in tumor uptake”. Also, the amount remaining (as a rule, the share of the starting amount still present when the sample was taken) at 24 h in data set [2] is about 90%. The intact peptide remaining result in data set [3] is recorded as “approximately 90%”. As for Ac-PHSCN-NH2 [ATN-161], the “binding affinity to αvβ3 integrin (in words)” value on αvβ3 integrin is on record as “micromolar affinity”. Further, at α5β1 integrin, the “binding affinity to α5β1 integrin (in words)” value is recorded as “micromolar affinity”. On to Echistatin, for which the “block of U87MG cell adhesion to fibronectin-coated plates (in words)” value in data set [4] is given as “able to block”.
